pEC50: −log10 of the molar value. Read-outs that look alike come from different tables or passages of the source.
Tests used:
[1] = Pharmacokinetics in fasted SD rats (PO and IV); format: in vivo; conditions: rat, plasma; for clearance: read-out: IV parameters CL; for bioavailability: read-out: PO parameters F (%)
Description: Compounds of the present application were formulated in 0.50% MC, and administered via oral gavage (PO) at the dosages of 5 or 10 mg per kilogram body weight, or formulated in 5% DMSO:15% Solutol 80% (SBECD), and administered via intravenous injection (IV) at the dosages of 1 mg per kilogram body weight, in fasted SD rats. Plasma samples were collected at 0.25, 0.5, 1, 2, 4, 6, 8, and 24 hours post dosing (PO); and were collected at 0.083, 0.25, 0.5, 1, 2, 4, 6, 8, and 24 hours post dosing (IV). Compound concentration was determined by LC-MS and pharmacokinetics parameters were calculated by WinNonlin 8.2 using Non-Compartmental Analysis model.

human GLP-1 = target: T1, human GLP-1 (Homo sapiens, UniProt P43220); assay: h-GLP-1 activity assay (Cisbio cAMP Gs dynamic kit, HTRF); format: cell-based; conditions: HEK293 cells with stable expression of human GLP-1, relative EC50, 10 nM human GLP-1 = 100% response
T1 construct: expressed in transfected cells
Description: Human GLP-1 agonizing activity was detected in HEK293 cells with stable expression of human GLP-1 by Cisbio cAMP Gs dynamic kit (Catalog #62AM4PEC) according to manufacturer's protocol. Briefly, cells were collected and resuspended in assay buffer containing 0.1% BSA and 0.5 mM of IBMX at concentration to 2.5×10^5 cells/mL. Two μL 5× compound solution and 8 μL cell suspension were added to each well of low-volume 384 white assay plate. After 30 min incubation at 37° C., 5 μL cAMP-d2 working solution and 5 μL anti-cAMP antibody-cryptate were added to each well, and incubate at room temperature for 1 hr. Series dilution of cAMP was used as standard. Human GLP-1 (7-37) was used as positive control and 10 nM human GLP-1 was set as 100% response. HTRF signals were read at 665 and 615 nm with EnVision plate reader and calculated cAMP concentration by intrapolation to the standard curve. The EC50 value of the tested compounds was calculated by fitting the dose response curve using a 4-parameter non-linear regression routine and relative EC50 was presented in Table S.

[2] = Liver microsome stability, human; format: in vitro ADME; conditions: human liver microsomes, NADPH, 37° C.
Description: (§1) Compounds of the present application was incubated with human or rat liver microsomes in the presence of NADPH at 37° C. The concentration of compound at pre-incubation and after 30 min incubation was quantified by LC-MS. The percentage of remaining compound was then calculated and indicative of microsome stability of each compound.

[3] = Liver microsome stability, rat; format: in vitro ADME; conditions: rat liver microsomes, NADPH, 37° C.
Description: as §1

[4] = IV 1 mg/kg, read-out: IV parameters AUC0-inf
[5] = PO 5 mg/kg, 0.50% MC, read-out: PO parameters AUC0-inf

T1 sequence (P43220 24-463): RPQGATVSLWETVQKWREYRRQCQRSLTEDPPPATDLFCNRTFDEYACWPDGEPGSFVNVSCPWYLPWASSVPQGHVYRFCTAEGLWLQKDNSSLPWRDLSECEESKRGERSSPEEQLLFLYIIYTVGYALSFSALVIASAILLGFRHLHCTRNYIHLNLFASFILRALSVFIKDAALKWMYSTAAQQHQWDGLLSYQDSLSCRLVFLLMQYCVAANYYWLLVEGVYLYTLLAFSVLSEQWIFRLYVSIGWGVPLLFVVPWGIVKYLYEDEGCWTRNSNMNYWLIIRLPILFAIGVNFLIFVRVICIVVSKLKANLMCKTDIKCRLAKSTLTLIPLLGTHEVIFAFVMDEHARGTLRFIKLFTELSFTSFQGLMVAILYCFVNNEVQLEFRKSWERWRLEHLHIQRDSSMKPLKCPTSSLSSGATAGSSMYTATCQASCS

SMILES	AUC(0-inf) [1, 4] [ng·h/mL]	clearance ([1]; IV 1 mg/kg) [mL/min/kg]	AUC(0-inf) [1, 5] [ng·h/mL]	bioavailability ([1]; PO 5 mg/kg) [%]	pEC50 (human GLP-1)	Human (% remaining @ 30 min) [2] [%]	Rat (% remaining @ 30 min) [3] [%]
C[C@]1(c2ccc(Cl)cc2F)Oc2cccc(-c3ccc(Cc4nc5ccc(C(=O)O)cc5n4C[C@@H]4CCO4)cc3)c2O1 (single isomer, unassigned) [Compound 19]	3380	5.5	4410	26.1	> 7.70		
O=C(O)c1ccc2nc(C[C@H]3CC[C@H](c4cccc(OCc5ccc(Cl)cc5F)n4)CO3)n(Cc3cncs3)c2c1 (single isomer, unassigned) [Compound 28]	588	28.8	526	21.7	> 7.70		
C[C@@]1(c2ccc(Cl)cn2)Oc2cccc(C3=CC[C@H](Cc4nc5ccc(C(=O)O)cc5n4C[C@@H]4CCO4)OC3)c2O1 (single isomer, unassigned) [Compound 78]					> 7.70	>75	>75
O=C(O)c1ccc2nc(CC34CCC(c5ccnc(OCc6ccc(Cl)cc6F)n5)(CC3)CO4)n(C[C@@H]3CCO3)c2c1 [Compound 35, (S)-2-((4-(2-((4-chloro-2-fluorobenzyl)oxy)pyrimidin-4-yl)-2-oxabicyclo[2.2.2]octan-1-yl)methyl)-1-(oxetan-2-ylmethyl)-1H-benzo[d]imidazole-6-carboxylic acid]					< 7.00		
N#Cc1ccc(COc2cccc(C34CCC(Cc5nc6ccc(C(=O)O)cc6n5C[C@@H]5CCO5)(CC3)OC4)n2)c(F)c1 [Compound 36, (S)-2-((4-(6-((4-cyano-2-fluorobenzyl)oxy)pyridin-2-yl)-2-oxabicyclo[2.2.2]octan-1-yl)methyl)-1-(oxetan-2-ylmethyl)-1H-benzo[d]imidazole-6-carboxylic acid]					< 7.00		
N#Cc1ccc(COc2cccc(N3CCC(Oc4nc5ccc(C(=O)O)cc5n4C[C@@H]4CCO4)CC3)n2)c(F)c1 [Compound 80, (S)-2-((1-(6-((4-cyano-2-fluorobenzyl)oxy)pyridin-2-yl)piperidin-4-yl)oxy)-1-(oxetan-2-ylmethyl)-1H-benzo[d]imidazole-6-carboxylic acid]					< 7.00		
O=C(O)c1ccc2nc(CCN3CC(c4cccc(OCc5ccc(Cl)cc5F)n4)C3)n(C[C@@H]3CCO3)c2c1 [Compound 82, (S)-2-(2-(3-(6-((4-chloro-2-fluorobenzyl)oxy)pyridin-2-yl)azetidin-1-yl)ethyl)-1-(oxetan-2-ylmethyl)-1H-benzo[d]imidazole-6-carboxylic acid]					7.00 to 7.70		

Results, then the molecule that gave them:

AUC(0-inf) [1, 4] [ng·h/mL]	clearance ([1]; IV 1 mg/kg) [mL/min/kg]	AUC(0-inf) [1, 5] [ng·h/mL]	bioavailability ([1]; PO 5 mg/kg) [%]	pEC50 (human GLP-1)	Human (% remaining @ 30 min) [2] [%]	Rat (% remaining @ 30 min) [3] [%]	SMILES
1760	9.7	3190	36.3	> 7.70	>75	>75	C[C@@]1(c2ccc(Cl)cc2F)Oc2cccc(C3=CC[C@@H](Cc4nc5ccc(C(=O)O)cc5n4C[C@@H]4CCO4)OC3)c2O1 (single isomer, unassigned) [Compound 100]
				> 7.70	>75	>75	C[C@]1(c2ccc(Cl)cc2F)Oc2cccc(C3=CC[C@@H](Cc4nc5ccc(C(=O)O)nc5n4C[C@@H]4CCO4)OC3)c2O1 (single isomer, unassigned) [Compound 108]
				> 7.70	>75	>75	C[C@]1(c2ccc(Cl)cc2F)Oc2cccc(C3=CC[C@@H](Cc4nc5c(F)cc(C(=O)O)cc5n4C[C@@H]4CCO4)OC3)c2O1 (single isomer, unassigned) [Compound 110]
				> 7.70	>75	>75	C[C@]1(c2ccc(Cl)cn2)Oc2cccc(C3=CC[C@H](Cc4nc5c(F)cc(C(=O)O)cc5n4C[C@@H]4CCO4)OC3)c2O1 (single isomer, unassigned) [Compound 118]

Source: patent US20220348564A1, “PHENYL-[1,3]DIOXOLO[4,5-C]PYRIDINYL-PHENYL-, PHENYL-[1,3]DIOXOLO[4,5-C]PYRIDINYL-HETEROARYL-, OR PHENYL-(1,3)DIOXO[4,5-C]PYRIDINYL-PIPERIDINYL-METHYL-OXETANYLMETHYL-1H-BENZO[D]IMIDAZOLE-CARBOXYLIC ACID DERIVATIVES AND METHODS OF USING SAME” (Eccogene (Shanghai) Co., Ltd., priority 2021, published 2022)
